In paper PMC11356900, “Synthesis, Structural Properties and Biological Activities of Novel Hydrazones of 2-, 3-, 4-Iodobenzoic Acid” (Molecules, 2024):
In brackets after ≈: the same amount, converted by molar mass.

Tests used:
[1] = test system: Candida albicans ATCC 10231; test: Broth microdilution MIC/MFC; assay type: cell-based
Outline: (§1)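 Following EUCAST and CLSI guidance, growth inhibition is measured in broth across final compound levels of 1000 down to 0.488 µg/mL. Cidal endpoints come from spotting each well onto agar; three independent repeats.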

[2] = test system: Candida albicans ATCC 2091; test: Broth microdilution MIC/MFC; assay type: cell-based
Outline: as §1

[3] = test system: Candida glabrata ATCC 90030; test: Broth microdilution MIC/MFC; assay type: cell-based; conditions: Nakaseomyces glabratus
Outline: as §1

[4] = test system: Candida krusei ATCC 14243; test: Broth microdilution MIC/MFC; assay type: cell-based; conditions: Pichia kudriavzevii
Outline: as §1

[5] = test system: Candida parapsilosis ATCC 22019; test: Broth microdilution MIC/MFC; assay type: cell-based; conditions: Lodderomyces parapsilosis
Outline: as §1

Gram-positive bacteria = test: Broth microdilution, summary over reference Gram-positive bacteria; assay type: cell-based; conditions: reference Gram-positive bacteria / studied bacteria
Outline: as §1

Candida spp. = test: Broth microdilution, summary over reference yeasts; assay type: cell-based; conditions: range over the reference Candida spp. strains
From the text: Procedures of in vitro antimicrobial assays are described in Supplementary Materials.
2. Microbiology – in vitro antimicrobial activity assays […]
using the broth microdilution method according to the European Committee on Antimicrobial Susceptibility Testing (EUCAST) and Clinical and Laboratory Standards Institute guidelines against a panel of reference and clinical or saprophytic strains of mi croorganisms, including the Gram-positive bacteria: Staphylococcus aureus ATCC 43300 (Methi-cillin Resistant S. aureus – MRSA), Staphylococcus aureus ATCC 29213 (Methicillin Susceptible S. aureus – MSSA), Staph-ylococcus epidermidis ATCC 12228, Micrococcus luteus ATCC 10240, Bacillus subtilis ATCC 6633 and Bacillus cereus ATCC 10876), Gram-negative bacteria: Bordetella bronchiseptica ATCC 4617, Escherichia coli ATCC 25922, Klebsiella pneumoniae ATCC 13883, Proteus mirabilis ATCC 12453, Salmonella typhimurium ATCC 14028 and Pseudomonas aeruginosa ATCC 9027, and fungi belonging to yeasts: Candida albicans ATCC 10231, Candida albicans ATCC 2091, Candida parapsilosis ATCC 22019, Candida glabrata ATCC 90030 and Candida krusei ATCC 14243. The microorganisms belonging to ATCC originated from American Type Culture Collection, routinely used for the evaluation of antimicrobials. All the used microbial cultures were first subcultured on nutrient agar or Sabouraud agar at 35°C for 18-24 h or 30°C for 24-48 h for bacteria […]
The surface of Mueller-Hinton agar (for bacteria) and RPMI 1640 with MOPS (for fungi) were inoculated with the suspensions of bacterial or fungal species. Microbial suspensions were prepared in sterile saline with an optical density of McFarland standard scale 0.5. The samples containing the compounds were dissolved in dimethyl sulfoxide (DMSO).
Furthermore, the bacterial and fungal suspensions put onto the Petri dishes with solid media containing 2 mg/mL of the tested compounds followed were incubated at 37°C for 24h and 30°C for 48h for bacteria and fungi, respectively.
The inhibition of microbial growth was estimated comparing with a control culture prepared without any tested sam- […]
antifungal compounds, respectively.
Subsequently, MIC (Minimal Inhibitory Concentration) of the compounds was examined by the microdilution broth method, using their two-fold dilutions in Mueller-Hinton broth (for bacteria) and RPMI 1640 broth with MOPS (for fungi) prepared in the 96-well polystyrene plates. The final concentrations of the compounds ranged from 1000 to 0.488 µg/mL. Microbial suspensions were prepared in 0.85% NaCl with an optical density of 0.5 McFarland standard. Next each bacterial or fungal suspension was added per each well containing broth and various concentrations of the exam-ined compounds. After incubation, the MIC was assessed spectrophotometrically as the lowest concentration of the […]
Appropriate DMSO, growth and sterile controls were carried out. The medium with no tested substances was used as a control The MBC (Minimal Bactericidal Concentration) and MFC (Minimal Fungicidal Concentration) are defined as the lowest concentration of the compounds that is required to kill a particular bacterial or fungal species. The MBC/MFC was determined by removing the culture used for the MIC determination from each well and spotted onto the appro-priate agar medium. The plates were incubated under appropriate conditions for bacteria and fungi. The lowest com-pounds concentration with no visible growth observed was assessed as a bactericidal/fungicidal concentration. All the experiments were repeated three times and the representative data are presented.
1. European Committee for Antimicrobial Susceptibility Testing (EUCAST) Determination of minimum inhibitory con-centrations (MICs) of antibacterial agents by broth dilution. EUCAST discussion document E. Dis 5.1. Clin. Microbiol.
2. Clinical and Laboratory Standards Institute. Reference method for broth dilution antifungal susceptibility testing of […]

[6] = test system: Staphylococcus aureus ATCC 25923; test: Broth microdilution MIC/MBC; conditions: Staphylococcus aureus, ATCC25923
[7] = test system: Staphylococcus aureus ATCC 29213; test: Broth microdilution MIC/MBC; conditions: ATCC29213
[8] = test system: Staphylococcus aureus ATCC 43300; test: Broth microdilution MIC/MBC; conditions: ATCC43300 / MRSA
[9] = test system: Staphylococcus epidermidis ATCC 12228; test: Broth microdilution MIC/MBC; conditions: ATCC12228
[10] = test system: Micrococcus luteus ATCC 10240; test: Broth microdilution MIC/MBC; conditions: Micrococcus luteus, ATCC10240
[11] = test system: Bacillus subtilis ATCC 6633; test: Broth microdilution MIC/MBC; conditions: ATCC6633
[12] = test system: Bacillus cereus ATCC 10876; test: Broth microdilution MIC/MBC; conditions: Bacillus cereus, ATCC10876
[13] = test system: Bordetella bronchiseptica ATCC 4617; test: Broth microdilution MIC/MBC; conditions: ATCC4617
[14] = test system: Klebsiella pneumoniae ATCC 13883; test: Broth microdilution MIC/MBC; conditions: ATCC13883
[15] = test system: Proteus mirabilis ATCC 12453; test: Broth microdilution MIC/MBC; conditions: ATCC12453
[16] = test system: Escherichia coli ATCC 25922; test: Broth microdilution MIC/MBC; conditions: ATCC25922
[17] = test system: Salmonella typhimurium ATCC 14028; test: Broth microdilution MIC/MBC; conditions: Salmonella enterica
[18] = test system: Pseudomonas aeruginosa ATCC 9027; test: Broth microdilution MIC/MBC; conditions: ATCC9027
[19] = test system: Gram-positive bacterial strains; design: method as in doi:10.14419/ijac.v5i1.7155; conditions: mainly Gram-positive bacterial strains; cited from earlier work

**Q.** With `O=C(N/N=C/c1cc(Br)cc(Br)c1O)c1ccc(I)cc1` [Compound 28, N-[(3,5-dibromo-2-hydroxyphenyl)methylidene]-4-iodobenzohydrazide] as the molecule, how does the MFC ([1]; ATCC10231, read-out: MFC) read?
**A.** The MFC was over 1000 µg/mL.

**Q.** What about the MIC ([1]; ATCC10231, read-out: MIC) of the same molecule?
**A.** Its MIC is 500 µg/mL (≈ 954 µM).

**Q.** And the MFC ([2]; ATCC2091, read-out: MFC)?
**A.** Its MFC is over 1000 µg/mL.

**Q.** And the MIC ([2]; ATCC2091, read-out: MIC)?
**A.** The MIC was 1000 µg/mL (≈ 1910 µM).

**Q.** And the MFC ([3]; ATCC90030, read-out: MFC)?
**A.** Its MFC is over 1000 µg/mL.

**Q.** What about the MIC ([3]; ATCC90030, read-out: MIC) of the same molecule?
**A.** The MIC was 1000 µg/mL (≈ 1910 µM).

**Q.** What about the MFC ([4]; ATCC14243, read-out: MFC) of the same molecule?
**A.** Its MFC is over 1000 µg/mL.

**Q.** What about the MIC ([4]; ATCC14243, read-out: MIC) of the same molecule?
**A.** Its MIC is 1000 µg/mL (≈ 1910 µM).

**Q.** What about the MFC ([5]; ATCC22019, read-out: MFC) of the same molecule?
**A.** Its MFC is over 1000 µg/mL.

**Q.** What about the MIC ([5]; ATCC22019, read-out: MIC) of the same molecule?
**A.** The MIC was 500 µg/mL (≈ 954 µM).

**Q.** What about the “antibacterial activity in words” value (Gram-positive bacteria) of the same molecule?
**A.** Its value is “No antimicrobial effect”.

**Q.** What about the MFC (Candida spp.) of the same molecule?
**A.** Its MFC is over 1000 µg/mL.

**Q.** What about the MIC (Candida spp.) of the same molecule?
**A.** The MIC was 250 to 1000 µg/mL (≈ 477 to 1910 µM).

**Q.** And the melting point?
**A.** Its melting point is 210 to 211 °C.

**Q.** What about the MIC [6] of the same molecule?
**A.** The MIC was over 1000 µg/mL.

**Q.** What about the MIC [7] of the same molecule?
**A.** Its MIC is over 1000 µg/mL.

**Q.** And the MIC [8]?
**A.** The MIC was over 1000 µg/mL.

**Q.** What about the MIC [9] of the same molecule?
**A.** The MIC was over 1000 µg/mL.

**Q.** What about the MIC [10] of the same molecule?
**A.** Its MIC is over 1000 µg/mL.

**Q.** What about the MIC [11] of the same molecule?
**A.** The MIC was over 1000 µg/mL.

**Q.** What about the MIC [12] of the same molecule?
**A.** The MIC was over 1000 µg/mL.

**Q.** What about the MIC [13] of the same molecule?
**A.** The MIC was over 1000 µg/mL.

**Q.** And the MIC [14]?
**A.** The MIC was over 1000 µg/mL.

**Q.** And the MIC [15]?
**A.** Its MIC is over 1000 µg/mL.

**Q.** And the MIC [16]?
**A.** The MIC was over 1000 µg/mL.

**Q.** And the MIC [17]?
**A.** The MIC was over 1000 µg/mL.

**Q.** What about the MIC [18] of the same molecule?
**A.** Its MIC is over 1000 µg/mL.

**Q.** With `O=C(NN=Cc1ccc(F)cc1)c1ccccc1` [N-(4-fluorobenzylidene)benzohydrazide] as the molecule, how does the “zone of bacterial growth inhibition ZOI” value [19] read?
**A.** Its value is 6–7 mm.
